The text below walks through data of ChEMBL document CHEMBL2311503, “Synthesis and anti-angiogenic activity of benzothiazole, benzimidazole containing phthalimide derivatives” (Bioorg Med Chem Lett, 2013).

SMILES strings stand for the structures. Active and inactive are the calls of the source. The calls are words filed in the database; no cut-off is given here.

The assay is filed under the species Gallus gallus. In words: Antiangiogenic activity in chicken embryo chorioallantoic membrane assessed as inhibition of growth of new vessels proximity at 10 uM after 6 hrs by CAM assay. The class given is functional, tissue-based.
With `O=C1c2ccccc2C(=O)N1c1nc2ccccc2s1`, the inhibition result is “Active”.

Regarding `O=C1c2ccccc2C(=O)N1c1cccc2nsnc12`, the inhibition result was “Active”.

With `Cc1ccc2c(c1)C(=O)N(c1nc3ccccc3s1)C2=O`, the inhibition entry was “Active”.

For `O=C1c2ccccc2C(=O)N1c1ccc2ncsc2c1`, the inhibition entry is “Active”.

As to `O=C1c2ccccc2C(=O)N1c1nc2ccccc2[nH]1`, the inhibition result is “Active”.
